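Following 48 hours of exposure in 96-well plates, responses at five concentrations were used to interpolate endpoints linearly. The concentration for 50% growth inhibition is given as GI50.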 Calls of active or inactive are those of the source. Cut-off read from the data, not from the text of the source: active = GI50 up to about 1.1 µM and inactive = higher. Where a SMILES comes first, the peptide text is derived from it. [ ]: non-standard residue; d: D form. The star is where a group is joined. ξ: configuration not given here. ξF = NC(Cc1ccccc1)C(=O)O; Cbz = O=C(OCc1ccccc1)*; Aib = CC(C)(N)C(=O)O
Experiments:
Test in all cases: NCI tumour cell line growth inhibition, 48 h
[1] = system: SK-MEL-28
[2] = system: OVCAR-5
[3] = system: COLO 205
[4] = system: OVCAR-4
[5] = system: RPMI-8226
[6] = system: IGROV-1
[7] = system: UACC-62
[8] = system: SF-268
[9] = system: Malme-3M
[10] = system: EKVX
[11] = system: HCC 2998
[12] = system: NCI/ADR-RES
[13] = system: SF-295
[14] = system: MCF7
[15] = system: ACHN
[16] = system: OVCAR-8
[17] = system: RXF 393
[18] = system: SK-MEL-2
[19] = system: NCI-H23
[20] = system: SNB-75

| SMILES | GI50 [1] | GI50 [2] | GI50 [3] | GI50 [4] | GI50 [5] | GI50 [6] | GI50 [7] | GI50 [8] | GI50 [9] | GI50 [10] | GI50 [11] | GI50 [12] | GI50 [13] | GI50 [14] | GI50 [15] | GI50 [16] | GI50 [17] | GI50 [18] | GI50 [19] | GI50 [20] |
| --- | --- | --- | --- | --- | --- | --- | --- | --- | --- | --- | --- | --- | --- | --- | --- | --- | --- | --- | --- | --- |
| COC(=O)C(C)(C)NC(=O)C(Cc1ccccc1)NC(=O)C(C)(C)NC(=O)OCc1ccccc1 (configuration not stated) (Cbz-[Aib]-[ξF]-[Aib]-OMe) | > 100 µM (inactive) | > 100 µM (inactive) | > 100 µM (inactive) | > 100 µM (inactive) | > 100 µM (inactive) | > 100 µM (inactive) | > 100 µM (inactive) | > 100 µM (inactive) | > 100 µM (inactive) | > 100 µM (inactive) | > 100 µM (inactive) | > 100 µM (inactive) | > 100 µM (inactive) | > 100 µM (inactive) | > 100 µM (inactive) | > 100 µM (inactive) |  |  |  |  |
| CC(=O)c1cc(I)c(O)c2ncccc12 | 4.09 µM (inactive) | > 10 µM (inactive) | 3.11 µM (inactive) | 2.94 µM (inactive) | 2.67 µM (inactive) | 2.94 µM (inactive) | 3.3 µM (inactive) | 3.22 µM (inactive) | 3.45 µM (inactive) | 6.49 µM (inactive) | 8.17 µM (inactive) | 4.35 µM (inactive) | 4.07 µM (inactive) | 4.73 µM (inactive) | 2.43 µM (inactive) | 2.92 µM (inactive) | 3.92 µM (inactive) | 6.35 µM (inactive) | 3.13 µM (inactive) |  |
| CN(C)CCOc1ccc2[nH]c(C(=O)N3CC(CCl)c4c3cc(N)c3ccccc43)cc2c1 (configuration not stated) | < 0.01 µM (active) | < 0.01 µM (active) | < 0.01 µM (active) | < 0.01 µM (active) | < 0.01 µM (active) | < 0.01 µM (active) | < 0.01 µM (active) | < 0.01 µM (active) | < 0.01 µM (active) | < 0.01 µM (active) | < 0.01 µM (active) | < 0.01 µM (active) | < 0.01 µM (active) | < 0.01 µM (active) | < 0.01 µM (active) | < 0.01 µM (active) |  | < 0.01 µM (active) | < 0.01 µM (active) | < 0.01 µM (active) |
| Cc1cc(-n2c(/C=C/c3ccc(Cl)cc3)nc3cc(Cl)ccc3c2=O)on1 | > 50 µM (inactive) | > 50 µM (inactive) | 18.9 µM (inactive) | 1.25 µM (inactive) |  | 29.6 µM (inactive) | > 50 µM (inactive) | 15.7 µM (inactive) | 24 µM (inactive) | 22.4 µM (inactive) | > 50 µM (inactive) | 14.4 µM (inactive) | 22 µM (inactive) | 18.9 µM (inactive) | 7.57 µM (inactive) | 10.6 µM (inactive) |  |  | 41.4 µM (inactive) |  |
| Cc1cc(NC2=NCCO2)c2c(c1C)CCCC2 | 15.4 µM (inactive) | 17.1 µM (inactive) | 17.1 µM (inactive) | 15.7 µM (inactive) | 12.6 µM (inactive) | 21.8 µM (inactive) | 15.2 µM (inactive) | 18.9 µM (inactive) | 11.6 µM (inactive) | 23.6 µM (inactive) | 15.2 µM (inactive) | 18.1 µM (inactive) | 12.6 µM (inactive) | 14.8 µM (inactive) | 10.1 µM (inactive) | 25.4 µM (inactive) | 39.3 µM (inactive) |  | 18 µM (inactive) | 19.2 µM (inactive) |
| O=C(O)Cc1cccc2c(=O)c3cccc([N+](=O)[O-])c3[nH]c12 |  | 36.5 µM (inactive) | 20.7 µM (inactive) | 38.1 µM (inactive) | 12.9 µM (inactive) | > 100 µM (inactive) | 25 µM (inactive) |  | 29.4 µM (inactive) |  | 60.3 µM (inactive) | > 100 µM (inactive) | > 100 µM (inactive) | 80.9 µM (inactive) | > 100 µM (inactive) | > 100 µM (inactive) |  | 72.1 µM (inactive) | > 100 µM (inactive) | 24.2 µM (inactive) |
| Brc1sc(Br)c2c1[C@H](Br)C[C@@H]2Br | 28 µM (inactive) | > 100 µM (inactive) | 53.6 µM (inactive) | 23.5 µM (inactive) |  | 26.9 µM (inactive) | 31.3 µM (inactive) | 20.7 µM (inactive) | 23.9 µM (inactive) | > 100 µM (inactive) |  | 23 µM (inactive) | > 10 µM (inactive) | 29.6 µM (inactive) | 32.8 µM (inactive) | 21.6 µM (inactive) | 0.0689 µM (active) | 24.6 µM (inactive) | 24.3 µM (inactive) | 30.1 µM (inactive) |
| CCCCN=C(OC1C=CCCC1)SC (configuration not stated) | > 100 µM (inactive) | > 100 µM (inactive) | > 100 µM (inactive) | > 100 µM (inactive) | > 100 µM (inactive) | > 100 µM (inactive) | > 100 µM (inactive) | > 100 µM (inactive) | > 100 µM (inactive) | > 100 µM (inactive) | > 100 µM (inactive) | > 100 µM (inactive) | > 100 µM (inactive) | > 100 µM (inactive) | > 100 µM (inactive) | > 100 µM (inactive) |  |  | > 100 µM (inactive) | 51.9 µM (inactive) |
| CN(C)C(=S)SCc1ccccc1 | > 100 µM (inactive) | > 100 µM (inactive) | > 100 µM (inactive) |  |  | > 100 µM (inactive) | > 100 µM (inactive) | > 100 µM (inactive) | 27.2 µM (inactive) | > 100 µM (inactive) |  | > 100 µM (inactive) | > 100 µM (inactive) | > 100 µM (inactive) |  | > 100 µM (inactive) | 3.85 µM (inactive) | 83.4 µM (inactive) | > 100 µM (inactive) | 2.41 µM (inactive) |
| CN1COCc2c1ccc1cc3ccc4c(c3nc21)COCN4S(C)(=O)=O | > 100 µM (inactive) | > 100 µM (inactive) | > 100 µM (inactive) | > 100 µM (inactive) |  | > 100 µM (inactive) | > 100 µM (inactive) | > 100 µM (inactive) | > 100 µM (inactive) | 78 µM (inactive) | > 100 µM (inactive) | > 100 µM (inactive) | > 100 µM (inactive) | 0.202 µM (active) | > 100 µM (inactive) | > 100 µM (inactive) | > 100 µM (inactive) |  | > 100 µM (inactive) | 20 µM (inactive) |
| CC1CN=C(N(C(=O)Nc2ccc(Cl)c(Cl)c2)c2ccccc2)S1 (configuration not stated) | 38.5 µM (inactive) | > 100 µM (inactive) | 37.2 µM (inactive) | 41.4 µM (inactive) | 64.9 µM (inactive) | > 100 µM (inactive) |  | 69.2 µM (inactive) | 76.7 µM (inactive) | 71.1 µM (inactive) | 33.6 µM (inactive) | 34.8 µM (inactive) | 75.7 µM (inactive) | 28.2 µM (inactive) | 57.8 µM (inactive) | 87.1 µM (inactive) |  | 23 µM (inactive) | 64.9 µM (inactive) | 56.2 µM (inactive) |
| CCC(=O)ONC(=O)Cn1ccc([N+](=O)[O-])n1 | > 100 µM (inactive) | > 100 µM (inactive) | > 100 µM (inactive) |  | > 100 µM (inactive) | > 100 µM (inactive) | > 100 µM (inactive) | > 100 µM (inactive) | > 100 µM (inactive) | > 100 µM (inactive) | > 100 µM (inactive) | > 100 µM (inactive) | > 100 µM (inactive) | > 100 µM (inactive) | > 100 µM (inactive) | > 100 µM (inactive) | > 100 µM (inactive) |  | > 100 µM (inactive) | > 100 µM (inactive) |
| Cc1oc(N)c(S(=O)(=O)c2cc3ccccc3[n+]([O-])c2N)c1C | > 100 µM (inactive) | > 100 µM (inactive) | > 100 µM (inactive) | > 100 µM (inactive) | > 100 µM (inactive) | > 100 µM (inactive) | > 100 µM (inactive) | > 100 µM (inactive) | > 100 µM (inactive) | > 100 µM (inactive) | > 100 µM (inactive) | > 100 µM (inactive) | > 100 µM (inactive) | > 100 µM (inactive) | > 100 µM (inactive) | > 100 µM (inactive) |  | > 100 µM (inactive) | > 100 µM (inactive) | > 100 µM (inactive) |
| COc1ccccc1-c1cc(O)c2c(C)cc(C)nc2n1 | > 100 µM (inactive) | > 100 µM (inactive) | 36.1 µM (inactive) | 56.1 µM (inactive) | 38.4 µM (inactive) | 30.5 µM (inactive) | 71.9 µM (inactive) | 84.3 µM (inactive) | 48 µM (inactive) | 67.5 µM (inactive) | > 100 µM (inactive) | 54.7 µM (inactive) |  | 46.8 µM (inactive) | 46.3 µM (inactive) | 90.2 µM (inactive) | 63.7 µM (inactive) | 45.9 µM (inactive) | 56.1 µM (inactive) |  |
| CCCCCCCCCCCCCCCCOCC(O)CO (configuration not stated) | 18.6 µM (inactive) | 19.8 µM (inactive) | 22.1 µM (inactive) | 21 µM (inactive) | 14.8 µM (inactive) | 16.3 µM (inactive) | 17 µM (inactive) | 17.1 µM (inactive) | 19.2 µM (inactive) | 18.2 µM (inactive) | 17.3 µM (inactive) | 16.7 µM (inactive) | 16.4 µM (inactive) | 22.2 µM (inactive) | 18.8 µM (inactive) | 17.9 µM (inactive) | 16.2 µM (inactive) | 20.6 µM (inactive) | 17.9 µM (inactive) |  |

— ChEMBL document CHEMBL1201862, “PubChem BioAssay data set” (2004)
